PMC7080406 (eLife, 2020)
Several values for one entry are separate records, joined by “and”; a condition that tells them apart may be missing. Identical values can stand only once. Entries after “also recorded” stand apart in the source; their conditions may differ. Like-named read-outs stand apart in the source and are kept apart here.

Legend:
[1] = biological target: T1, MT1 (Homo sapiens, UniProt P48039); test: [3H]melatonin competition radioligand binding, MT1 membranes; conditions: read-out: MT1 pKi ± SEM (converted)
T1 construct: expressed in transfected cells; host or cells: HEK293T (ATCC CRL-11268), transient transfection
T1 sequence (P48039 whole entry): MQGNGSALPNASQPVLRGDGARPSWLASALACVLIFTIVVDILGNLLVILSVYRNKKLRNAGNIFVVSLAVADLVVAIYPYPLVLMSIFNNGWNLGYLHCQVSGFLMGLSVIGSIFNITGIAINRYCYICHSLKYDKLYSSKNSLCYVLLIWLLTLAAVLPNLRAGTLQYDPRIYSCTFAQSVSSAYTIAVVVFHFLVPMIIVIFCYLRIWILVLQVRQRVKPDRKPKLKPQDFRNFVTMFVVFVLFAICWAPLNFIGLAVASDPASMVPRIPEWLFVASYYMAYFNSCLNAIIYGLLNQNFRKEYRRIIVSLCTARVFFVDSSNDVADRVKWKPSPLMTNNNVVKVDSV
Experimental: (§1) The Radioligand binding assays were conducted by the NIMH Psychoactive Drug Screening Program (PDSP). The NIMH PDSP is directed by Bryan L. Roth, MD, PhD, at the University of North Carolina at Chapel Hill, North Carolina, and Program Officer Jamie Driscoll at NIMH, Bethesda, MD. Binding assay procedures and protocols are also available online at http://pdspdb.unc.edu/pdspWeb/?site=assays. […] Assay plates were sealed and incubated for 4 hr at 37°C in a humidified incubator until harvesting. Plates were harvested using vacuum filtration onto 0.3% polyethyleneimine pre-soaked 96-well Filtermat A (PerkinElmer) and washed three times with cold wash buffer (50 mM Tris, pH 7.4). Filters were dried and melted with a scintillation cocktail (Meltilex, PerkinElmer). Radioactivity was counted using a Wallac TriLux Microbeta counter (PerkinElmer). Results were analyzed using GraphPad Prism 7.0.

[2] = biological target: T1, MT1; test: GloSensor Gi/o-mediated cAMP production inhibition assay, MT1; assay type: cell-based; conditions: for EC50: Gi/o mediated
Experimental: (§2) Briefly, HEK293 T cells (as above) were transiently co-transfected with receptor (MT1 or MT2) and GloSensor cAMP (Promega) plasmids overnight, plated in Poly-L-Lysine coated 384-well white clear bottom plates in DMEM + 1% dialyzed FBS. Cells were used for assays at a minimum of 6 hr after plating. Culture medium was first removed and cells were stimulated with drugs in assay buffer (1x HBSS, 20 mM HEPES, 1 mg/ml BSA, 0.1 mg/ml ascorbic acid, pH 7.4) for 15 min at room temperature (this and all the following steps), followed by addition of a mixture of isoproterenol (final of 100 nM) and luciferin (final of 1 mM) for Gi/o-cAMP production inhibition assays and luciferin (final of 1 mM) for Gs-cAMP production assays. The plates were counted for luminescence after 25 min in a luminescence plate reader. Results were analyzed using GraphPad Prism 7.0.

[3] = tested on: panel of 47 common drug targets (GPCRs, ion-channels and transporters); test: Binding profiling at a panel of 47 common drug targets; conditions: final concentration of 10 μM
Experimental: as §1, with “http://pdspdb.unc.edu/pdspWeb/?site=assays. All the radioligand binding assays were performed using membranes prepared from transiently transfected HEK293T cells (purchased from ATCC, CRL-11268, authenticated by the supplier using morphology, growth characteristics, and STR profiling and certified mycoplasma-free) and in standard binding buffer (50 mM Tris, 10 mM MgCl2, 0.1 mM EDTA, 0.1% BSA, 0.01% ascorbic acid, pH 7.4) as recently reported ([Stauch et al., 2019]).” for “http://pdspdb.unc.edu/pdspWeb/?site=assays.”

[4] = biological target: T2, MT2 (Homo sapiens, UniProt P49286); test: Tango β-arrestin recruitment assay, MT2; assay type: cell-based; parameters: expressed in transfected cells; transient transfection; conditions: result in words; compared to G-protein
T2 sequence (P49286 1-362): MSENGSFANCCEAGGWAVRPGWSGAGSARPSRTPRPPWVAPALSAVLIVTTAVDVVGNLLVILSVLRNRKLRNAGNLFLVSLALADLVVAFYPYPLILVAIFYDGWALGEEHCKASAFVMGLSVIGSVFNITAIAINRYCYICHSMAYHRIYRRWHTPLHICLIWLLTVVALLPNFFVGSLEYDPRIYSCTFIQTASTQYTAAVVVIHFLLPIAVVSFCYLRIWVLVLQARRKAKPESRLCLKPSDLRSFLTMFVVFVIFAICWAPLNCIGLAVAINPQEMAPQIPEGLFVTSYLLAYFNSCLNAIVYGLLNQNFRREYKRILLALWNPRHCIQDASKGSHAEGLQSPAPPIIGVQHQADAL
Experimental: Tango arrestin recruitment assays were carried out according to the previously published procedure [Kroeze et al. (2015)]. In brief, HTLA cells were transiently transfected with receptor TANGO DNA constructs overnight in DMEM with 10% FBS. Transfected cells were then plated into poly-L-Lys coated 384-well plates using DMEM supplemented with 1% dialyzed FBS. After 6 hr incubation, drug dilutions, prepared in DMEM with 1% dFBS, were added for incubation overnight (16–20 hr). Medium and drug solutions were removed, Bright-Glo reagent (20 uL/well) was added for luminescence counting 20 min later. Results were analyzed in GraphPad Prism 7.0.

[5] = biological target: T2, MT2; test: [3H]melatonin competition radioligand binding, MT2 membranes; parameters: expressed in transfected cells; host or cells: HEK293T (ATCC CRL-11268), transient transfection; conditions: read-out: MT2 pKi ± SEM (converted)
Experimental: as §1

[6] = biological target: T2, MT2; test: GloSensor Gi/o-mediated cAMP production inhibition assay, MT2; assay type: cell-based; parameters: expressed in transfected cells; host or cells: HEK293T (ATCC CRL-11268), transient transfection
Experimental: as §2

[7] = biological target: T2, MT2; test: Bias factor, Gi-cAMP versus Tango (Black and Leff operational model), MT2; assay type: cell-based; parameters: expressed in transfected cells; host or cells: HEK293T (ATCC CRL-11268), transient transfection; conditions: G-protein over β-arrestin at MT2; reference melatonin; 10^ΔΔLog(τ/KA)
Experimental: Bias factors were estimated according to the published procedure [Kenakin et al. (2012)] with modifications. Briefly, normalized and pooled results were analyzed by fitting the Black and Leff operational model in Prism 7.0 to obtain Log(τ/KA) values for each pathway (Tango and Gi-cAMP). Within each signaling pathway, a difference of Log(τ/KA), ΔLog(τ/KA), between a test compound and selected reference (melatonin in this case) was calculated. For a testing compound, the difference of ΔLog(τ/KA), ΔΔLog(τ/KA), was then obtained between two pathways. The bias factor is 10^ΔΔLog(τ/KA).

[8] = ligand efficiency (based on EC50)

Ki [1]: 490 nM | EC50 ([2]; SEM, N = 3, read-out: MT1 pEC50 ± SEM (converted)): 12.3 nM | EC50 ([2]; read-out: MT1 EC50): 12 nM | MT1 LE [2, 8]: 0.69 kcal/mol per non-hydrogen atom | Emax ([2]; read-out: MT1 Emax ± SEM): 93.8 ± 2.5% | binding at panel of 47 common drug targets [3]: did not show any substantial binding | Ki [5]: 123 nM | MT2/MT1 Selectivity ([6]; Antilog (log(Emax/EC50) MT2 - log (Emax/EC50) MT1), values below 1 = MT1 selectivity): 30 fold and 30.6 fold | EC50 ([6]; Gi/o mediated, SEM, N = 3, read-out: MT2 pEC50 ± SEM (converted)): 0.363 nM | Emax ([6]; MT2, activation compared to melatonin, read-out: MT2 Emax ± SEM): 86.1 ± 3.2% | MT2 LE [6, 8]: 0.83 kcal/mol per non-hydrogen atom | bias factor [7]: 15.5
SMILES: COc1ccnc(N(C)CCNC(C)=O)n1 [Compound 21, N-{2-[(4-methoxypyrimidin-2-yl)(methyl)amino]ethyl}acetamide]
β-arrestin signaling / arrestin recruitment at MT2 [4]: dramatically reduced arrestin recruitment; also recorded: marked reduction in β-arrestin signaling compared to G-protein
